Here are results for three compounds from patent US20040102367A1, “Gene expression system based on chimeric receptors” (priority 2002, published 2004).

The target in series [1] is T1, GRU1.2D-3 (Bombyx mori, UniProt P49881).
T1 construct: BEcR hinge domain and HBD (corresponding to amino acids 272 to 606); expressed in transfected cells
T1 sequence (P49881 272-606): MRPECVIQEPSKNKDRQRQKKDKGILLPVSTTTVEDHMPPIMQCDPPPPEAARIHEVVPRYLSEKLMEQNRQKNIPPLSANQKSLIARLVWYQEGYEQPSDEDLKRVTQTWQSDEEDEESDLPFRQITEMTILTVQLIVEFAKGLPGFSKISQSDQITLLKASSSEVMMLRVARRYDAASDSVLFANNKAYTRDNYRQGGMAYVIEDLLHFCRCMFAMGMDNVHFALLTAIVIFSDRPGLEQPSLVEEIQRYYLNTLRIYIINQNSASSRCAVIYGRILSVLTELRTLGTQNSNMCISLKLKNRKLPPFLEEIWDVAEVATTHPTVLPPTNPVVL
Kind of series: transient transfection luciferase expression assay (GalO-luc reporter) with VHB and GRU1.2D-3. The format is cell-based. To be noted: GRU1.2D-3 point mutant (Cys329 to Gly); 1 micromolar ligand, 48 hrs. On the procedure: (§1) All construction and cloning was performed by standard methods and as described by Suhr et al., in Proc Natl Acad Sci USA 95(14):7999-8004 (1998) for similar chimeric proteins. For the VHB protein combining the transactivation domain of HSV VP16 protein with the hinge and hormone binding/heterodimerization domain (HBD) of Bombyx mori EcR (BEcR), the 77 amino acid (231 base pair) VP16 domain was amplified by PCR with an in-frame Mlul site at the 3′ end that was ligated with an identical site introduced into the 5′ end of the BEcR hinge domain and HBD (corresponding to amino acids 272 to 606). The final construct, termed VHB, functionally couples the VP16 domain with the BEcR high-affinity hormone responsive domains (see FIG. 3). This DNA was introduced into a number of expression constructs for expression in transduced cells.
(§2) The DNA-binding dimer partner protein fused the 95 amino acid Gal4 DNA binding domain via a BspE I site at the 3′ end to a region of either the RXR or Usp protein with high affinity ligand dependent interaction with BEcR. These variants used amino acids 200-462 of the human RXR alpha protein or amino acids 169-507 of the Drosophila Usp protein (see FIG. 3). These proteins are termed GR (for the RXR variant) or GU (for the Usp variant). […]

Series [2] deals with T2, GRU variant 1.2 (Bombyx mori, UniProt P49881).
T2 construct: BEcR hinge domain and HBD (corresponding to amino acids 272 to 606); expressed in transfected cells
T2 sequence (P49881 272-606): T1 sequence (P49881 272-606)
As to the kind of experiment: transient transfection luciferase expression assay (GalO-luc reporter) with RXR-USP chimeric protein GRU variant 1.2. Format: cell-based. As to conditions: 1 micromolar ligand, 48 hrs. On the procedure:
as §1, §2

Series [3] deals with T3, EcR+Usp (Drosophila melanogaster, UniProt P34021).
T3 sequence (P34021 1-878): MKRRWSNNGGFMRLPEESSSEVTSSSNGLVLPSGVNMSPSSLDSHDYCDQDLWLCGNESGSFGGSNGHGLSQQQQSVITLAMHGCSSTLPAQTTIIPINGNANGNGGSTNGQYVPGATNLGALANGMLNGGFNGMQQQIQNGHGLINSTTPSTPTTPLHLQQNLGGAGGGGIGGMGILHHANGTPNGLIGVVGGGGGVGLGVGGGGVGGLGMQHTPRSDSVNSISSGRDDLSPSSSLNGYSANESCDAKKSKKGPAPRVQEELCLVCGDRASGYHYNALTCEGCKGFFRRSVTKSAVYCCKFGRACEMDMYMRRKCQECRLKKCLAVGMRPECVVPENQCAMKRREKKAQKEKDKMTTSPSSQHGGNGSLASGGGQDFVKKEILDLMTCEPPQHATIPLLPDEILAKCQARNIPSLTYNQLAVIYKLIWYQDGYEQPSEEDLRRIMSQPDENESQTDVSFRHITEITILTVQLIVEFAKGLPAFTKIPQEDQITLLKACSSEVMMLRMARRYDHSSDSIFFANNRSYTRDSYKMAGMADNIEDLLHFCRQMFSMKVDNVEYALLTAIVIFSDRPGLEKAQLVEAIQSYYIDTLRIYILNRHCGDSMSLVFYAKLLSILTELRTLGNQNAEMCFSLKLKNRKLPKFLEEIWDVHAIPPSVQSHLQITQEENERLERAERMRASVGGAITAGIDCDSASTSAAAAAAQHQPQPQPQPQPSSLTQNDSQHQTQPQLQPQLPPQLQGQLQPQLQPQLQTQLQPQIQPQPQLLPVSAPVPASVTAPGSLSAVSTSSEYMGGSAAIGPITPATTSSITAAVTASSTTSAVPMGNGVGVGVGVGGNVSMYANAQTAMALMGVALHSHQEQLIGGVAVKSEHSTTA
T3 sequence (P20153 1-508 partner): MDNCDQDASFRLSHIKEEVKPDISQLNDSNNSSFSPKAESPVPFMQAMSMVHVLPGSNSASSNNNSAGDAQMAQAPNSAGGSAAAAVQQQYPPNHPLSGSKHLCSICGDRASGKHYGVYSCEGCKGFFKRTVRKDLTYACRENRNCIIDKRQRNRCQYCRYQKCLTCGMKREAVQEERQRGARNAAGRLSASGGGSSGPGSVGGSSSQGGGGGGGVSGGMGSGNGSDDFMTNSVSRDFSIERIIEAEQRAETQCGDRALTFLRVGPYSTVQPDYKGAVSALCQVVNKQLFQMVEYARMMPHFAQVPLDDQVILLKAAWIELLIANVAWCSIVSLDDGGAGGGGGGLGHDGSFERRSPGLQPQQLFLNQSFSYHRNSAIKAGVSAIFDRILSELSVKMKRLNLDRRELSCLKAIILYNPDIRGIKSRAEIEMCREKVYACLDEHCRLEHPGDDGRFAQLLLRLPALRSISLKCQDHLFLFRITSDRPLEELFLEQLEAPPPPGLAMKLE
As to conditions: cited from earlier work.

Series [4] deals with T4, EcR+RXR (Drosophila melanogaster, UniProt P34021).
T4 sequence (P34021 1-878): T3 sequence (P34021 1-878)
T4 sequence (P19793 1-462 partner): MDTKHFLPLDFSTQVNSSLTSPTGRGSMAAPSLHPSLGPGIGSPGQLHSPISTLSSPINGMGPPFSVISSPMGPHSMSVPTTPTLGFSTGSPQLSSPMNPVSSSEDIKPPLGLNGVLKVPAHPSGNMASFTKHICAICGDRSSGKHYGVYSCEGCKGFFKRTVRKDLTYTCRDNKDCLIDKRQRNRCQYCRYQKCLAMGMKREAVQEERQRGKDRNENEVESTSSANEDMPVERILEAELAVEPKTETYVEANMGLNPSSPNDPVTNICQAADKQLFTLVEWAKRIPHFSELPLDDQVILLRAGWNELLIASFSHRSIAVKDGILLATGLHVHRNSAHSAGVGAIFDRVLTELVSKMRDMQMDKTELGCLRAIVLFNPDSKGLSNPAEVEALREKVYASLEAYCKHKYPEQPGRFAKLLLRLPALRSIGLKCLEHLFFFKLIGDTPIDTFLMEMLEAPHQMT
To be noted: compared with 20-hydroxyecdysone; literature; cited from earlier work.

Series [5] has as its system mammals and other non-insect species. As to conditions: extensive testing in animal hosts; cited from earlier work.

As for `CC(C)(O)CC[C@@H](O)[C@](C)(O)[C@H]1CC[C@@]2(O)C3=CC(=O)[C@@H]4C[C@@H](O)[C@@H](O)C[C@]4(C)[C@H]3CC[C@]12C` [20-OH ecdysone, 20-Hydroxy-ecdysone], the “response to ligand (transactivation)” value in series [1] was “high level response”; in series [2], “good response”. Besides, in series [3] (literature), the “stimulation of formation of EcR+Usp heterodimers” value was “potently stimulated”.
For `CC(C)CC[C@@H](O)[C@](C)(O)[C@H]1CC[C@@]2(O)C3=CC(=O)[C@]4(O)C[C@@H](O)[C@@H](O)C[C@]4(C)[C@H]3[C@H](O)C[C@]12C` [muristerone A], the “stimulation of formation of EcR+RXR heterodimers” value in series [4] was “more highly stimulated”. Besides, the “stimulation of EcR+Usp binding of EcREs over levels without ligand” value in series [3] (literature (Christopherson, Thomas, Yao)) is reported as 3 to 7 fold.
`CCc1ccc(C(=O)NN(C(=O)c2cc(C)cc(C)c2)C(C)(C)C)cc1` [tebufenozide]: in series [5], the “toxicity to mammals and other non-insect species” value is “very low toxicity”. The “response to ligand (transactivation)” value in series [1] is given as “high level response”; in series [2], “good response”.
